Columns and labels:
Pseudomonas aeruginosa = assay: Agar plate disc-diffusion, antibacterial inhibition zone; assay type: cell-based; conditions: nutrient agar, 37° C., 48 h, DMSO zone subtracted
Protocol: (§1) The agar plate disc-diffusion method was applied. […] The discs were then placed onto the surface of agar plates (nutrient agar for bacteria and Sabouraud's dextrose agar for fungi) seeded with the test organism. Each plate contained 15 mLof the agar medium, previously seeded with 0.2 mL of the broth culture of each organism pregrown for 18 h. The plates were incubated at 37° C. for 48 h, and 72 h for fungi. The inhibition zones was measured in mm. Discs impregnated with DMSO were used as a control, and its inhibition zone was subtracted from the tested compound actual inhibition zone.

Escherichia coli = assay: as above; assay type: cell-based; conditions: nutrient agar, 37° C., 48 h, DMSO zone subtracted
Protocol: as §1

Bacillus cereus = assay: as above; assay type: cell-based; conditions: nutrient agar, 37° C., 48 h, DMSO zone subtracted
Protocol: as §1

Staphylococcus aureus = assay: as above; assay type: cell-based; conditions: nutrient agar, 37° C., 48 h, DMSO zone subtracted
Protocol: as §1

[1] = tested on: Chrysosporium keratinophilum; assay: Agar plate disc-diffusion, antifungal inhibition zone; assay type: cell-based; conditions: Sabouraud's dextrose agar, 37° C., 72 h, DMSO zone subtracted
Protocol: as §1

Aspergillus flavus = assay: as above; assay type: cell-based; conditions: Sabouraud's dextrose agar, 37° C., 72 h, DMSO zone subtracted
Protocol: as §1

[2] = A = concentration of comp. = 10,000 μL
[3] = B = concentration of comp. = 30,000 μL
[4] = C = concentration of comp. = 50,000 μL

melting point: 164 °C
SMILES: O=C(O)CCCCCSc1nnc(-c2cccc(F)c2)n1-c1ccccc1 [III, 6-(5-(3-fluorophenyl)-4-phenyl-4H-1,2,4-triazol-3-ylthio)hexanoic acid]
inhibition zone, Pseudomonas aeruginosa (Pseudomonas aeruginosa; [2]): 24 mm
inhibition zone, Pseudomonas aeruginosa (Pseudomonas aeruginosa; [3]): 26 mm
inhibition zone, Pseudomonas aeruginosa (Pseudomonas aeruginosa; [4]): 45 mm
inhibition zone, Escherichia coli (Escherichia coli; [2]): 27 mm
inhibition zone, Escherichia coli (Escherichia coli; [3]): 34 mm
inhibition zone, Escherichia coli (Escherichia coli; [4]): 56 mm
inhibition zone, Bacillus Cereus (Bacillus cereus; [2]): 26 mm
inhibition zone, Bacillus Cereus (Bacillus cereus; [3]): 30 mm
inhibition zone, Bacillus Cereus (Bacillus cereus; [4]): 41 mm
inhibition zone, Staphylococcus aureus (Staphylococcus aureus; [2]): 22 mm
inhibition zone, Staphylococcus aureus (Staphylococcus aureus; [3]): 25 mm
inhibition zone, Staphylococcus aureus (Staphylococcus aureus; [4]): 30 mm
inhibition zone, Chrysosporium keratinophilum [1, 2]: 25 mm
inhibition zone, Chrysosporium keratinophilum [1, 3]: 28 mm
inhibition zone, Chrysosporium keratinophilum [1, 4]: 46 mm
inhibition zone, Aspergillus flavus (Aspergillus flavus; [2]): 21 mm
inhibition zone, Aspergillus flavus (Aspergillus flavus; [3]): 27 mm
inhibition zone, Aspergillus flavus (Aspergillus flavus; [4]): 37 mm
